Measured values taken from patent US7129078B2, “DNA encoding androgen receptor fragment” (University of North Carolina at Chapel Hill, priority 1988, dated 2006).

Biological target: T1, steroid-binding domain of hAR (human androgen receptor) expressed from cDNA fragment (Homo sapiens, UniProt P10275)
T1 sequence (P10275 669-900 limits assumed): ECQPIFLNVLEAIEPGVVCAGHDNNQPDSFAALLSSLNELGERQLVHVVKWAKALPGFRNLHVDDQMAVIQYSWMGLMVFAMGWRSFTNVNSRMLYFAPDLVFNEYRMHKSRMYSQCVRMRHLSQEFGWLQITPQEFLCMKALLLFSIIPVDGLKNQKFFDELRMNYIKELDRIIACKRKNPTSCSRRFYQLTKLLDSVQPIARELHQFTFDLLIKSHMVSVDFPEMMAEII
Conditions: unlabeled steroid at 10- and 100-fold excess over 5 nM [3H]dihydrotestosterone

C[C@]12CCC(=O)C=C1CC[C@@H]1[C@@H]2[C@@H](O)C[C@@]2(C)[C@H]1CC[C@]2(O)C(=O)CO [cortisol]
steroid specificity (relative affinity): low affinity
